US20260258084A1, “New Peptides as Selective IL-23 Receptor Antagonists” (Sanofi, priority 2022, published 2026)
In brackets after ≈: the same amount, converted by molar mass. Like-named read-outs stand apart in the source and are kept apart here. Starred links: 1 amine or outer side, 2 acyl side, 3 side chain; linkers in the order of their positions; H or OH if unused. Positions of bridges follow the written chain, without caps; N, C: chain ends. Non-standard residues stand in square brackets, D forms with d. Residues, ends and D or L forms follow the SMILES beside them. *: point of attachment. Yde = (2S)-2-amino-3-[4-[2-(dimethylamino)ethoxy]phenyl]propanoic acid, CN(C)CCOc1ccc(C[C@H](N[*:1])C(=O)[*:2])cc1; Trp(7-Me) = Cc1cccc2c(C[C@H](N)C(=O)O)c[nH]c12; X1 = O=C(CCCCN[*:3])N[C@@H](CS[*:2])C(=O)[*:1]; 2Nal = N[C@@H](Cc1ccc2ccccc2c1)C(=O)O; εLys = N[C@@H](CCCCN[*:1])C(=O)[*:2]; 3Pal = N[C@@H](Cc1cccnc1)C(=O)O; NMeN = CN[C@@H](CC(N)=O)C(=O)O; αMeL = CC(C)C[C@](C)(N)C(=O)O; Thp = NC1(C(=O)O)CCOCC1; Me2NCH2CH2 = CN(C)CC*; Aib = CC(C)(N)C(=O)O; Ahx = NCCCCCC(=O)O; Ava = NCCCCC(=O)O; Sar = CNCC(=O)O

B1: Compound of SEQ ID NO: 35 (peptide)
peptide: [Ava]CNT[Trp(7-Me)]K(Ac)C[Yde][2Nal][Thp]EN[3Pal][Sar]-NH2
modifications: lactam N-11; disulfide 2-7
SMILES: CC(=O)NCCCC[C@@H]1NC(=O)[C@H](Cc2c[nH]c3c(C)cccc23)NC(=O)[C@H]([C@@H](C)O)NC(=O)[C@H](CC(N)=O)NC(=O)[C@@H]2CSSC[C@H](NC1=O)C(=O)N[C@@H](Cc1ccc(OCCN(C)C)cc1)C(=O)N[C@@H](Cc1ccc3ccccc3c1)C(=O)NC1(CCOCC1)C(=O)N[C@H](C(=O)N[C@@H](CC(N)=O)C(=O)N[C@@H](Cc1cccnc1)C(=O)N(C)CC(N)=O)CCC(=O)NCCCCC(=O)N2
B2: Pen peptide compound of SEQ ID NO: 163 (peptide)
peptide: XXNTWQXXXXENN
modifications: not fully specified; Apt(§1)-Pen(@2)-N-T-W-Q-Pen(@2)-Yae-Nal-Thp-E(§1)-N-N-NH2
B3: Compound of SEQ ID NO: 28 (peptide)
peptide: [Ava]C[εLys](Ac)WQC[Yde][2Nal][αMeL]ENN-NH2
modifications: lactam N-10; disulfide 2-6; also: Cys2 carboxyl bonded to Lys3 epsilon-NH2 (isopeptide), Lys3 alpha-N acetylated

Experiments:
[1] = system: IL-23 induced STAT3 signaling in HEK-Blue™ IL-23 cells; test: IL-23 induced STAT3 signaling in HEK-Blue IL-23 cells (SEAP reporter); format: cell-based; conditions: human IL23 0.25 ng/ml, read-out: pSTAT3
Summary of the method: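 Secreted SEAP, read at OD 620-655 nm after 45 min QUANTI-Blue development, reports STAT3 activation. Beforehand, cells were exposed to peptide dilutions for 60 min at 37 °C and then to 0.25 ng/ml final human IL-23 overnight, at 10,000 cells/well.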

[2] = Chemical stability assessment of peptides (relative purity loss); format: physicochemical; conditions: 24 hours at 37° C.; for Chemical stability (relative purity loss) Buffer pH 1.2: 50 mM HCl pH 1.2 + acetonitrile (1:1); for Chemical stability (relative purity loss) Buffer pH 6.5: 50 mM phosphate buffer pH 6.5 + acetonitrile (1:1); for Chemical stability (relative purity loss) Buffer pH 7.4: 50 mM phosphate buffer pH 7.4 + acetonitrile (1:1)
Summary of the method: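 Peptide solutions at 1 mg/ml (purity-corrected) in 1:1 acetonitrile with 50 mM HCl pH 1.2, or 50 mM phosphate pH 6.5 or pH 7.4, held 24 hours at 2° C. and 37° C. Supernatants analysed by UHPLC-UV; relative purity loss taken as percent drop in peak-area purity from 0 to 24 hours at 37° C.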

Pepsin = system: T1, Pepsin; test: Protease stability in simulated gastric fluid (Pepsin-SGF, FaSSGF); format: in vitro ADME; conditions: simulated gastric fluid with pepsin (Pepsin-SGF), 60 min, 1 μM peptide, 37° C., read-out: FaSSGF 60 (min), remaining percent of peptide
T1 construct: purchased Merck Millipore
Summary of the method: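 LCMS/MS peak areas, normalised to the time-0 sample as 100%, give percent remaining. Conditions: 37° C incubation of 1 μM final peptide in simulated gastric fluid with pepsin; ethanol/0.1% HCOOH quench at 0, 60, 120, 240 min.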

[3] = target: T2, human interleukin-23 receptor (recombinant human IL-23R-Fc chimera) (Homo sapiens, UniProt Q5VWK5); test: Human ELISA IL23/IL23R (assay for specific human IL23R antagonists); format: binding; conditions: Table 10; read-out: Human ELISA IL23/IL23R IC50
T2 construct: Fc (IgG Fc fusion)
Summary of the method: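 Competition format: peptide dilutions compete for IL23R-Fc chimera (0.1 μg/ml final, 60 min, room temperature) binding to immobilized human IL23 coated at […] overnight at 4 °C. Read-out is fluorogenic HRP signal from goat anti-hu-IgG1 detecting captured receptor.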

Pancreatin = test: Protease stability in simulated intestinal fluid (Pancreatin-SIF, FaSSIF); format: in vitro ADME; conditions: 1 μM peptide, 37° C.; for remaining at 1 h, 1 µM: 60 min, read-out: FaSSIF 60 (min), remaining percent of peptide; for remaining at 2 h, 1 µM: 120 min, read-out: FaSSIF 120 (min), remaining percent of peptide; for remaining at 4 h, 1 µM: 240 min, read-out: FaSSIF 240 (min), remaining percent of peptide
Summary of the method: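 LC-MS/MS peak areas at 0, 60, 120 and 240 min, normalised to time 0 as 100%, give percent remaining. Reactions used 1 μM final peptide at 37° C in pancreatin-SIF (1 mg pancreatin in 10 mL SIF concentrate) and were stopped with ethanol containing 0.1% HCOOH.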

[4] = Solubility testing of peptides at different pH; format: physicochemical; conditions: target concentration 1 mg/ml, 2 hours agitation
Summary of the method: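 Four buffers were used: 50 mM HCl pH 1.2 and 50 mM phosphate at pH 6.5, 7.4 and 9.0, each receiving dried-down compound at a 1 mg/mL target. After 2 h gentle shaking and 0.45 μm filtration, UV peak areas were compared with a DMSO standard curve of known concentration, allowing for extinction coefficients.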

[5] = target: T3, recombinant human IL-23R-Fc chimera (human, UniProt Q5VWK5 24-353); test: competition ELISA: IL-23R-Fc binding to coated human IL23
T3 construct: used at 0.1 µg/ml in the ELISA; not shown: Fc part of the chimera; detected with goat anti-hu-IgG1-HRP a
T3 sequence (looked up): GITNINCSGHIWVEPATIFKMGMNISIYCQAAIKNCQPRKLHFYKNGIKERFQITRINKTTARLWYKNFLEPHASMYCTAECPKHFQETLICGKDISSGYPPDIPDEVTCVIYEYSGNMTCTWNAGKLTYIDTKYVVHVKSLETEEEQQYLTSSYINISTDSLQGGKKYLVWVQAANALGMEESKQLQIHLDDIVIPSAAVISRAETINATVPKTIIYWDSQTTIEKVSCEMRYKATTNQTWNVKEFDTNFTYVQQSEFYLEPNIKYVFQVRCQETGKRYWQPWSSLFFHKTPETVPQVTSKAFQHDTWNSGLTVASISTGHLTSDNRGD
Experimental: Antagonism of compounds for human interleukin-23 receptor antagonists, was determined by an ELISA assay.
A 384-well plate was coated with 50 μl/well of human IL23 at a final concentration of […] and incubated overnight at 4° C. The wells were washed 3 times with 80 μl wash buffer and blocked with 80 μl blocking buffer for 60 minutes at room temperature and washed again. 20 μl of serially diluted test peptides was added to each well and subsequently 20 μl of recombinant human IL-23R-Fc chimera at final concentration of 0.1 μg/ml. The plate was incubated for 60 minutes at room temperature. After the wells were washed, bound IL23R-Fc was detected with goat anti-hu-IgG1-HRP antibody. Signals were visualized with QuantaBlu Fluorogenic Peroxidase Substrate.

[6] = target: T4, IL-23 receptor on the surface of HEK-Blue IL-23 cells (UniProt Q5VWK5 24-629, limits assumed); test: cell-based or functional assay
T4 sequence (looked up): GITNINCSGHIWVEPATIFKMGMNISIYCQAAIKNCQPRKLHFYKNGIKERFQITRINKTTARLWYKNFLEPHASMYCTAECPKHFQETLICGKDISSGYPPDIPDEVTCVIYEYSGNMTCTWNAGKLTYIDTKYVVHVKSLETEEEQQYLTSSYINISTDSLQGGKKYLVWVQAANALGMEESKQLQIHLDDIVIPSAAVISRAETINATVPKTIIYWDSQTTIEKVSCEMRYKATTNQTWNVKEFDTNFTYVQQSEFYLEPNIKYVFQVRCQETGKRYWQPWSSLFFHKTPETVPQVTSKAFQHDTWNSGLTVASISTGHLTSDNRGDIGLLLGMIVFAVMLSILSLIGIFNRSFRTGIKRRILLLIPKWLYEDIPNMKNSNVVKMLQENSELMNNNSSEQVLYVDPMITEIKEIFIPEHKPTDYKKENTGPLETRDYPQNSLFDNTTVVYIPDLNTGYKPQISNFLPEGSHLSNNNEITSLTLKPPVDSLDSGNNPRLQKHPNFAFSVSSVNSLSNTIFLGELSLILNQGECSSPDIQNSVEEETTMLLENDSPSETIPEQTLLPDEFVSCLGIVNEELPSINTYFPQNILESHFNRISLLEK

[7] = 50 mM HCl buffer, 50 mM HCl pH 1.2, read-out: Solubility Buffer pH 1.2
[8] = 50 mM phosphate buffer pH 6.5, read-out: Solubility Buffer pH 6.5
[9] = 50 mM phosphate buffer pH 7.4, read-out: Solubility Buffer pH 7.4

Molecule	IC50 [1] [nM]	Chemical stability (relative purity loss) Buffer pH 1.2 [2] [%]	Chemical stability (relative purity loss) Buffer pH 6.5 [2] [%]	Chemical stability (relative purity loss) Buffer pH 7.4 [2] [%]	remaining at 1 h, 1 µM (Pepsin) [%]	IC50 [3] [nM]	remaining at 1 h, 1 µM (Pancreatin) [%]	remaining at 2 h, 1 µM (Pancreatin) [%]	remaining at 4 h, 1 µM (Pancreatin) [%]	solubility at 2 h [4, 7] [µg/mL]	solubility at 2 h [4, 8] [µg/mL]	solubility at 2 h [4, 9] [µg/mL]	IC50 [5] [nM]	pSTAT3 (nM) [6] [nM]
CC(=O)N[C@H]1CCCCNC(=O)[C@@H]2CSSC[C@H](NC(=O)[C@H](CCC(N)=O)NC(=O)[C@H](Cc3c[nH]c4ccccc34)NC1=O)C(=O)N[C@@H](Cc1ccc(OCCN(C)C)cc1)C(=O)N[C@@H](Cc1ccc3ccccc3c1)C(=O)NC1(CCOCC1)C(=O)N[C@H](C(=O)N[C@@H](CC(N)=O)C(=O)NCC(N)=O)CCC(=O)NCCCCC(=O)N2 [compound 30] (Ac-KWQCY(Me2NCH2CH2)[2Nal][Thp]ENG-NH2; linker 1-4-8 via X1)	5.41	18.7	2.1	3.7	87	0.54	93	92	83					
COc1ccc(C[C@@H]2NC(=O)[C@@H]3CSSC[C@H](NC(=O)CCCCCNC(=O)C[C@@H](C(=O)N[C@@H](CC(N)=O)C(=O)N[C@@H](CC(N)=O)C(N)=O)NC(=O)C(C)(C)NC(=O)[C@H](Cc4ccc5ccccc5c4)NC2=O)C(=O)N(C)[C@@H](CC(N)=O)C(=O)N[C@@H]([C@@H](C)O)C(=O)N[C@@H](Cc2c[nH]c4ccccc24)C(=O)N[C@@H](CCC(N)=O)C(=O)N3)cc1 [compound 6] ([Ahx]C[NMeN]TWQCY(Me)[2Nal][Aib]DNN-NH2; disulfide 2-7; lactam N-11)	72.9	27.4		3.1	1	0.68	78	77	51	40 (≈ 24.1 µM)	30 (≈ 18 µM)	20 (≈ 12 µM)		
COc1ccc(C[C@@H]2NC(=O)[C@@H]3CSSC[C@H](NC(=O)CCCCCNC(=O)CC[C@@H](C(=O)N[C@@H](CC(N)=O)C(=O)N[C@@H](CC(N)=O)C(N)=O)NC(=O)C(C)(C)NC(=O)[C@H](Cc4ccc5ccccc5c4)NC2=O)C(=O)N[C@@H](CC(N)=O)C(=O)N[C@@H]([C@@H](C)O)C(=O)N[C@@H](Cc2c[nH]c4ccccc24)C(=O)N[C@@H](CCC(N)=O)C(=O)N3)cc1 [compound 2] ([Ahx]CNTWQCY(Me)[2Nal][Aib]ENN-NH2; disulfide 2-7; lactam N-11)	54	27.5	0.1	0.8	1	0.6	71	71	47	100 (≈ 60.1 µM)	< 50	< 50		
Cc1cccc2c(C[C@@H]3NC(=O)[C@H]([C@@H](C)O)NC(=O)[C@H](CC(N)=O)NC(=O)[C@@H]4CSSC[C@H](NC(=O)[C@H](CCC(N)=O)NC3=O)C(=O)N[C@@H](Cc3ccc(OCCN(C)C)cc3)C(=O)N[C@@H](Cc3ccc5ccccc5c3)C(=O)N[C@@](C)(CC(C)C)C(=O)N[C@H](C(=O)N[C@@H](CC(N)=O)C(=O)N[C@@H](Cc3cccnc3)C(=O)N(C)CC(N)=O)CCC(=O)NCCCCC(=O)N4)c[nH]c12 [compound 63] ([Ava]CNT[Trp(7-Me)]QCY(Me2NCH2CH2)[2Nal][αMeL]EN[3Pal][Sar]-NH2; disulfide 2-7; lactam N-11)	0.2				95	0.41	90	86	81	≥ 910	≥ 980	≥ 910		
B1													0.34	0.34
B2													163	
B3													0.39	4.11
